Assay results taken from patent US9150598B2, “Masking apertures enabling automation and solution exchange in sessile bilayers” (The Regents of the University of California, priority 2011, dated 2015).

Legend:
[1] = target: T1, TRPM8 (Rattus norvegicus, UniProt Q8R455); test: Ensemble TRPM8 currents in droplet lipid bilayer with solution perfusion (drug potency); type: biochemical; conditions: +100 mV
T1 construct: 6x histidine tag (N); made in house; host or cells: E. coli
Experimental: (§1) The apparatus was prepared for use by filling the outer wells and lower channel with 200 μL of an aqueous solution containing liposomes (described below) (FIG. 1B). The 200 μm aperture in the hydrophobic Delrin film is sufficiently small to prevent flow of aqueous solution through it. 80 μL of n-decane was then added to the center well, contacting the lower aqueous solution through the Delrin aperture (FIG. 1B). […] The lower aqueous solution could be exchanged by adding and withdrawing fluids through the outer wells (FIG. 1B).
2 μL of this solution was used for the sessile droplet and 200 μL of this solution (or a similarly prepared liposome solution not containing TRPM8) was added to the lower aqueous channel.
A Ag/AgCl counter electrode placed in the one of the outer wells and the Ag/AgCl pin electrode were connected to an Axopatch 200B amplifier (Axon Instruments), which was used to apply a transmembrane potential and measure the resultant ionic current (FIG. 1B). […] Bilayer capacitance was measured throughout to ensure that changes in measured current were due to changes in channel conductance and not changes in bilayer size or stability. […]
The resultant current at each concentration was measured over 10 minutes before the concentration was increased (FIG. 7). […]
The average current at each concentration was determined and normalized by the maximum value measured. […]

[2] = target: T1, TRPM8; test: Ensemble TRPM8 currents while varying PI(4,5)P2 concentration; type: biochemical; conditions: 250 μM menthol, +100 mV, 20° C.
Experimental: Data were filtered at 200 Hz. Measurements began in the absence of PI(4,5)P2. After ten minutes at each concentration, the concentration of PI(4,5)P2 was then increased by 0.8 μM with the addition of […] PI(4,5)P2 stock solution (100 μM) to the 200 μL lower aqueous solution. With no PI(4,5)P2 in the measurement solution, there was no observed channel activity. As the concentration of PI(4,5)P2 increased, frequency of channel opening increased. […] Throughout experiments, temperature was kept constant at 20° C.
During measurement, solutions were added to the fluid inlet well and withdrawn from the fluid outlet well (FIG. 6D).
Bilayers were formed with this chip at very high yield and with highly consistent diameters (163±14 μm (n=55), measured capacitively).^17 Following bilayer formation, a potential of 0 mV was applied followed by voltage steps from −100 mV to +100 mV, in 20 mV increments for 10 seconds each, and the resulting current measured. We measured no TRPM8 currents in the absence of the signaling phospholipid PI(4,5)P2, in agreement with previous work (B. Liu and F. Qin, J. Neurosci., 2005, 25, 1674-1681; T. Rohács, C. M. B. Lopes, I. Michailidis and D. E. Logothetis, Nat. Neurosci., 2005, 8, 626-634). […] With PI(4,5)P2, constant TRPM8 currents were almost always observed immediately upon bilayer formation.

[3] = Control: DPhPC droplet bilayers made without hERG membrane preparations; conditions: identical amounts of drug added
[4] = target: T1, TRPM8; test: Single-channel TRPM8 recordings in droplet lipid bilayer (open probability); type: biochemical; conditions: 20° C., +100 mV, 2.5 μM PI(4,5)P2, n=9
Experimental: as §1
A TRPM8 construct with 6× histidine tag at the amino terminus was transformed into E. coli, expressed, and purified. […] The resulting proteoliposomes were aliquoted and stored at −80° C. […]
A Ag/AgCl counter electrode placed in the one of the outer wells and the Ag/AgCl pin electrode were connected to an Axopatch 200B amplifier (Axon Instruments), which was used to apply a transmembrane potential and measure the resultant ionic current (FIG. 1B). […] Bilayer capacitance was measured throughout to ensure that changes in measured current were due to changes in channel conductance and not changes in bilayer size or stability.
Temperature was measured using a 10 kΩ n-type thermistor (Newark) placed in the solution of one of the outer wells. […]
Ensembles of TRPM8 were measured using a 1:1000 protein:lipid ratio.

T1 sequence (Q8R455 whole entry, the tested form may be a part): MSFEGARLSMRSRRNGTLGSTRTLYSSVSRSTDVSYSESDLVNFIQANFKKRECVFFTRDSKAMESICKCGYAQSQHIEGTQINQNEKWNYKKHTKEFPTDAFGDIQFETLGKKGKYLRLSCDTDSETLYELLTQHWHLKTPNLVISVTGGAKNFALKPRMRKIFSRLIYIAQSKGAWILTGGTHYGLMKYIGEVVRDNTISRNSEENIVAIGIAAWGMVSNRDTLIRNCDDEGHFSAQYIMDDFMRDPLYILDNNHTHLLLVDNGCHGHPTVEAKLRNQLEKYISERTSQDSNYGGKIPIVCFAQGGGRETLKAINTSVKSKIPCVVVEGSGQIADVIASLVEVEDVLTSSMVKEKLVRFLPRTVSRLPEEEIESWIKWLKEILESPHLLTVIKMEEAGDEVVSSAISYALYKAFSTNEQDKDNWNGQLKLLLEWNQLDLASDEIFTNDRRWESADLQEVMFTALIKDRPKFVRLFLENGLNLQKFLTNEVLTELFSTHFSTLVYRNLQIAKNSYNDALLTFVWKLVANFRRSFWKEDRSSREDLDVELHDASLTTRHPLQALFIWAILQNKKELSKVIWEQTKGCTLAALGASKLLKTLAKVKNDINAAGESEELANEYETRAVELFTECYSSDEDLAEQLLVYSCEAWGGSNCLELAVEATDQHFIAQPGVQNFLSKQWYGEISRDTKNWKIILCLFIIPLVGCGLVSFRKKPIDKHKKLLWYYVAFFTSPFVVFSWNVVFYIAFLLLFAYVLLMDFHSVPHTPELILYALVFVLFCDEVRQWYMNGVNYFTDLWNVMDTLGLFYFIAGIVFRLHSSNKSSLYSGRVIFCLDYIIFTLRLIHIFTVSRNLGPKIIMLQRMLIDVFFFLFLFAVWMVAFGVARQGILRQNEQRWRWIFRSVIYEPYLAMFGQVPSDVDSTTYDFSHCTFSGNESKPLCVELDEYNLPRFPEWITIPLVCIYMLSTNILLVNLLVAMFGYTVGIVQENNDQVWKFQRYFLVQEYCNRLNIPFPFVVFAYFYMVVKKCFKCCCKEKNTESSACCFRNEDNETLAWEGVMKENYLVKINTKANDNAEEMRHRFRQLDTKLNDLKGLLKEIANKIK

NCCOB(c1ccccc1)c1ccccc1 [2-APB, 2-aminoethoxydiphenyl borate]
IC50 ([1]; read-out: IC50 of 2-APB on menthol-evoked TRPM8 currents, in 500 μM menthol, protein:lipid 1:1000, n=3): 4.9 µM

phosphatidylinositol-4,5-bisphosphate [PI(4,5)P2]
PI(4,5)P2 concentration at which maximum current did not increase further [2]: 2.4 µM

COc1ccc(CCN2CCC(Nc3nc4ccccc4n3Cc3ccc(F)cc3)CC2)cc1 [astemizole]
Effect on bilayers without hERG [3]: no change in membrane conductance observed

CC1CCC(C(C)C)C(O)C1 (stereo not drawn) [menthol]
EC50 ([1]; protein:lipid 1:1000, 2.5 μM PI(4,5)P2, n=3): 112 µM | Popen (open probability) of TRPM8 ([4]; 50 μM menthol): 0.639±0.029 | Popen (open probability) of TRPM8 ([4]; 500 μM menthol): 0.967±0.013
